{"source": "patent US4064277A", "about": "“Method for processing soybeans” (Kikkoman Shoyu Co., Ltd., priority 1974, dated 1977)", "key": {"[1]": {"tested_on": "β-glycosidase", "test": "minimum effective amount of competitive inhibitor, operation of Example 1 repeated", "settings": "based on the weight of the whole soybeans", "method": "40 Grams of whole soybeans were swelled by soaking at room temperature for 8 hours in 80 ml. of an aqueous solution containing glucono-1,5-lactone as a competitive inhibitor for β-glycosidase in such proportion, based on the weight of the soybeans, as shown in Table 1. In this case, two thirds times the amount of said aqueous solution was incorporated into the soybeans. To the soaked soybeans was added 320 ml. of hot water (at above 95° C.), and the resulting mixture was treated by means of a homogenizer to prepare a ground suspension, which was then filtered by use of a 100-mesh sieve to obtain an extract. The temperature at the time of the homogenization treatment effected with addition of said hot water was above 90° C., and, by said treatment, β-glycosidase contained in the soybeans was completely inactivated, and the mixture was freed from beany odor (grassy smell). The thus obtained extract (soybean milk) was subjected to organoleptic test by drinking to obtain such results as shown in Table 1. The aforesaid operation was repeated, except that the glucono-1,5-lactone was replaced by each of the competitive inhibitors shown in Table 2, and the minimum effective amount of the competitive inhibitor based on the weight of the whole soybeans was calculated. The same operation as in Example 1 was effected, except that the glucono-1,5-lactone was replaced by each of the competitive inhibitors set forth in Table 3, and the minimum effective amount of the competitive inhibitor based on the weight of the whole soybeans was calculated."}, "[2]": {"tested_on": "β-glycosidase", "test": "β-glycosidase inhibitory ratio in soaked whole soybeans (p-nitrophenyl-β-D-glucopyranoside substrate, 420 mμ)", "type": "biochemical", "settings": "for β-Glycosidase inhibitory ratio (%): soaking 8 hours at room temperature", "method": "40 Grams of whole soybeans were swelled by soaking at room temperature for 8 hours in 80 ml. of an aqueous solution containing glucono-1,5-lactone as a competitive inhibitor for β-glycosidase in such proportion, based on the weight of the soybeans, as shown in Table 1. In this case, two thirds times the amount of said aqueous solution was incorporated into the soybeans. To the soaked soybeans was added 320 ml. of hot water (at above 95° C.), and the resulting mixture was treated by means of a homogenizer to prepare a ground suspension, which was then filtered by use of a 100-mesh sieve to obtain an extract. The temperature at the time of the homogenization treatment effected with addition of said hot water was above 90° C., and, by said treatment, β-glycosidase contained in the soybeans was completely inactivated, and the mixture was freed from beany odor (grassy smell).\n^2) The β-glycosidase inhibitory ratio (%) was measured in the\nfollowing manner: At the time of soybean soaking, in the above-mentioned\noperation, 0.1 weight % based on the weight of the soybeans of\np-nitrophenyl-β-D-glucopyranoside was absorbed together with the\nsoaking solution into the soybeans. After lapse of the same soaking perio\nas mentioned previously, the soybeans were boiled in water for 5 minutes.\nSubsequently, the soybeans were soaked in a 2.5M sodium carbonate solutio\nto elute p-nitrophenol which had been liberated in the soybeans due to th\naction of β-glycosidase. The developed yellow color was determined b\nusing electrophotometer (420 mμ), and the ratio (%) of\nβ-glycosidase activity remaining in each sample was subtracted from\n100%, assuming as 100% the β-glycosidase activity in the sample of\nRun No. 1, which had not been incorporated with glucono-1,5-lactone, to\nobtain a value. This value was decided as the inhibitory ratio (%)."}}}
{"smiles": "C[C@@H]1OC(=O)[C@@H](O)[C@H](O)[C@@H]1O", "note": "[Fucono-1,5-lactone, fucono-1,5-lactone]", "values": [{"measurement": "Minimum effective amount (weight %)", "setting": "[1]", "value": 0.02, "unit": "weight %"}]}
{"smiles": "O=C1O[C@H](CO)[C@H](O)[C@H](O)[C@H]1O", "note": "[Galactono-1,5-lactone, galactono-1,5-lactone]", "values": [{"measurement": "Minimum effective amount (weight %)", "setting": "[1]", "value": 20, "unit": "weight %"}]}
{"smiles": "O=C1O[C@H](CO)[C@@H](O)[C@H](O)[C@H]1O", "note": "[Glucono-1,5-lactone, glucono-1,5-lactone]", "values": [{"measurement": "β-Glycosidase inhibitory ratio (%)", "setting": "[2]; Run No. 2: amount used 0.0015 weight %, incorporated into soybeans 0.0010 weight %", "value": 13, "unit": "%"}, {"measurement": "β-Glycosidase inhibitory ratio (%)", "setting": "[2]; Run No. 3: amount used 0.015 weight %, incorporated into soybeans 0.010 weight %", "value": 49, "unit": "%"}, {"measurement": "β-Glycosidase inhibitory ratio (%)", "setting": "[2]; Run No. 4: amount used 0.15 weight %, incorporated into soybeans 0.10 weight %", "value": 73, "unit": "%"}, {"measurement": "β-Glycosidase inhibitory ratio (%)", "setting": "[2]; Run No. 5: amount used 1.5 weight %, incorporated into soybeans 1.0 weight %", "value": 90, "unit": "%"}, {"measurement": "activity of β-glycosidase in the soybeans", "setting": "[2]; whole soybeans impregnated with 0.10 weight % or more, as aqueous solution", "value": "greatly inhibited"}]}
{"smiles": "OC[C@H]1OC(O)[C@H](O)[C@@H](O)[C@@H]1O", "note": "(stereo partly drawn) [Glucose, glucose]", "values": [{"measurement": "Minimum effective amount (weight %)", "setting": "[1]", "value": 40, "unit": "weight %"}]}
{"smiles": "OC[C@H]1NC(O)[C@H](O)[C@@H](O)[C@@H]1O", "note": "(stereo partly drawn) [Nojirimycin]", "values": [{"measurement": "Minimum effective amount (weight %)", "setting": "[1]", "value": 0.01, "unit": "weight %"}]}
